{"source": "paper PMC5537074", "about": "(Journal of medicinal chemistry, 2017)", "key": {"rodents": {"system": "rodents", "conditions": "cited from earlier work"}, "T2DM patients": {"system": "T2DM patients", "conditions": "cited from earlier work"}, "[1]": {"system": "cultured cells (adipocyte differentiation)", "conditions": "cultured cells treated with compound; cited from earlier work"}, "PPARγ": {"system": "PPARγ", "conditions": "as compared to rosiglitazone; cited from earlier work"}, "[2]": {"target": "T1, human GAL4-PPARγ-Hinge-LBD (Homo sapiens, UniProt P37231)", "T1 sequence (P37231 238-503 limits assumed)": "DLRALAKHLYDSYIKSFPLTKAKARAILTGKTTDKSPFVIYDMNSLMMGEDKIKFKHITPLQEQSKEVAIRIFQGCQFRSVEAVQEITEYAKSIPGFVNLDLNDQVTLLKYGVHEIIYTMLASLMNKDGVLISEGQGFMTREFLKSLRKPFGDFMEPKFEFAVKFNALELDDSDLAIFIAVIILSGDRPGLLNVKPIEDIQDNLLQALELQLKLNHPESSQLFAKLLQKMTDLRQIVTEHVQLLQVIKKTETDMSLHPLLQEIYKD", "assay": "Transactivation assay", "format": "cell-based", "conditions": "HEK293T cells, GAL4-PPARγ-Hinge-LBD / UAS-luciferase, 18 h incubation, doses 169 pM to 10 μM"}}, "data": [{"compound": "O=S(=O)(Nc1cc(Cl)c(Oc2cnc3ccccc3c2)c(Cl)c1)c1ccc(Cl)cc1Cl", "note": "[Compound 1, 2,4-dichloro-N-(3,5-dichloro-4-(quinolin-3-yloxy)phenyl)benzenesulfonamide]", "values": [{"measurement": "lowers blood glucose levels", "setting": "rodents; 0.3 mg/kg dose", "value": "over 30%"}, {"measurement": "total weight gain, heart weight gain, lung weight gain", "setting": "rodents; compared with rosiglitazone administration", "value": "less total weight gain, heart weight gain, and lung weight gain"}, {"measurement": "pharmacokinetic and pharmacodynamic properties", "setting": "T2DM patients; Phase 1 studies (4 studies)", "value": "favorable pharmacokinetic and pharmacodynamic properties"}, {"measurement": "tolerability", "setting": "T2DM patients; Phase 2a, multicenter, double blind, placebo controlled, T2DM patients", "value": "generally well tolerated"}, {"measurement": "Adipocyte differentiation", "setting": "[1]", "value": "not enhanced"}, {"measurement": "maximal transcriptional activation of reporter genes", "setting": "PPARγ", "value": "approximately 30%"}]}, {"compound": "O=S(=O)(Nc1cc(Cl)c(Oc2cnc3ccccc3c2)c(Cl)c1)c1cccs1", "note": "[Compound 15, N-(3,5-dichloro-4-(quinolin-3-yloxy)phenyl)thiophene-2-sulfonamide]", "values": [{"measurement": "EC50 (nM) n=3", "setting": "[2]", "value": "no activity"}]}, {"compound": "CN(CCOc1ccc(CC2SC(=O)NC2=O)cc1)c1ccccn1", "note": "(stereo not drawn) [rosiglitazone]", "values": [{"measurement": "Adipocyte differentiation", "setting": "[1]", "value": "significant induction"}]}, {"compound": "N-(3,5-dichloro-4-(quinolin-3-yloxy)phenyl)-thiophene-2-carboxamide [Compound 7]", "values": [{"measurement": "EC50 (nM) n=3", "setting": "[2]", "value": "no activity"}]}]}
